Measurements published in ChEMBL document CHEMBL5331074, “Design and synthesis of new adamantyl derivatives as promising antiproliferative agents” (Eur J Med Chem, 2023).

Assays:
[1] = system: Panel NCI-60 (60 carcinoma cell lines); experiment: Cytotoxicity against human Panel NCI-60 (60 carcinoma cell lines) assessed as mean growth inhibition; assay type: functional
IGROV-1 = experiment: Cytotoxicity against human IGROV-1 cells assessed as cell growth inhibition; assay type: functional, cell-based
RXF 393 = experiment: Cytotoxicity against human RXF 393 cells assessed as cell growth inhibition; assay type: functional, cell-based
SF-268 = experiment: Cytotoxicity against human SF-268 cells assessed as cell growth inhibition; assay type: functional, cell-based
A549 = experiment: Cytotoxicity against human A549 cells assessed as cell growth inhibition; assay type: functional, cell-based
U-251 = experiment: Cytotoxicity against human U-251 cells assessed as cell growth inhibition; assay type: functional, cell-based
K562 = experiment: Cytotoxicity against human K562 cells assessed as cell growth inhibition; assay type: functional, cell-based
Hs-578T = experiment: Cytotoxicity against human Hs-578T cells assessed as cell growth inhibition; assay type: functional, cell-based
786-0 = experiment: Cytotoxicity against human 786-0 cells assessed as cell growth inhibition; assay type: functional, cell-based
SW-620 = experiment: Cytotoxicity against human SW620 cells assessed as cell growth inhibition; assay type: functional, cell-based
NCI-H522 = experiment: Cytotoxicity against human NCI-H522 cells assessed as cell growth inhibition; assay type: functional, cell-based
HT-29 [2] = experiment: Cytotoxicity against human HT-29 cells assessed as cell growth inhibition; assay type: functional, cell-based
OVCAR-3 = experiment: Cytotoxicity against human OVCAR-3 cells assessed as cell growth inhibition; assay type: functional, cell-based
SNB-19 = experiment: Cytotoxicity against human SNB-19 cells assessed as cell growth inhibition; assay type: functional, cell-based
MDA-MB-231 = experiment: Cytotoxicity against human MDA-MB-231 cells assessed as cell growth inhibition; assay type: functional, cell-based
HOP-92 = experiment: Cytotoxicity against human HOP-92 cells assessed as cell growth inhibition; assay type: functional, cell-based
NCI/ADR-RES = experiment: Cytotoxicity against human NCI/ADR-RES cells assessed as cell growth inhibition; assay type: functional, cell-based
SF-539 = experiment: Cytotoxicity against human SF-539 cells assessed as cell growth inhibition; assay type: functional, cell-based
NCI-H23 = experiment: Cytotoxicity against human NCI-H23 cells assessed as cell growth inhibition; assay type: functional, cell-based
NCI-H226 = experiment: Cytotoxicity against human NCI-H226 cells assessed as cell growth inhibition; assay type: functional, cell-based
HCT-15 = experiment: Cytotoxicity against human HCT-15 cells assessed as cell growth inhibition; assay type: functional, cell-based
TK-10 = experiment: Cytotoxicity against human TK-10 cells assessed as cell growth inhibition; assay type: functional, cell-based
UACC-257 = experiment: Cytotoxicity against human UACC-257 cells assessed as cell growth inhibition; assay type: functional, cell-based
RPMI-8226 = experiment: Cytotoxicity against human RPMI-8226 cells assessed as cell growth inhibition; assay type: functional, cell-based
SNB-75 = experiment: Cytotoxicity against human SNB-75 cells assessed as cell growth inhibition; assay type: functional, cell-based
BT-549 = experiment: Cytotoxicity against human BT-549 cells assessed as cell growth inhibition; assay type: functional, cell-based
SK-OV-3 = experiment: Cytotoxicity against human SK-OV-3 cells assessed as cell growth inhibition; assay type: functional, cell-based
HCC 2998 = experiment: Cytotoxicity against human HCC 2998 cells assessed as cell growth inhibition; assay type: functional, cell-based
KM12 = experiment: Cytotoxicity against human KM12 cells assessed as cell growth inhibition; assay type: functional, cell-based
MOLT-4 = experiment: Cytotoxicity against human MOLT-4 cells assessed as cell growth inhibition; assay type: functional, cell-based
CAKI-1 = experiment: Cytotoxicity against human CAKI-1 cells assessed as cell growth inhibition; assay type: functional, cell-based
HOP-62 = experiment: Cytotoxicity against human HOP-62 cells assessed as cell growth inhibition; assay type: functional, cell-based
UACC-62 = experiment: Cytotoxicity against human UACC-62 cells assessed as cell growth inhibition; assay type: functional, cell-based
DU-145 = experiment: Cytotoxicity against human DU-145 cells assessed as cell growth inhibition; assay type: functional, cell-based
Malme-3M = experiment: Cytotoxicity against human Malme-3M cells assessed as cell growth inhibition; assay type: functional, cell-based
MCF7 = experiment: Cytotoxicity against human MCF7 cells assessed as cell growth inhibition; assay type: functional, cell-based
OVCAR-4 = experiment: Cytotoxicity against human OVCAR-4 cells assessed as cell growth inhibition; assay type: functional, cell-based
SK-MEL-2 = experiment: Cytotoxicity against human SK-MEL-2 cells assessed as cell growth inhibition; assay type: functional, cell-based
OVCAR-5 = experiment: Cytotoxicity against human OVCAR-5 cells assessed as cell growth inhibition; assay type: functional, cell-based
UO-31 = experiment: Cytotoxicity against human UO-31 cells assessed as cell growth inhibition; assay type: functional, cell-based
M14 = experiment: Cytotoxicity against human M14 cells assessed as cell growth inhibition; assay type: functional, cell-based
PC-3 = experiment: Cytotoxicity against human PC-3 cells assessed as cell growth inhibition; assay type: functional, cell-based
NCI-H460 = experiment: Cytotoxicity against human NCI-H460 cells assessed as cell growth inhibition; assay type: functional, cell-based
SK-MEL-28 = experiment: Cytotoxicity against human SK-MEL-28 cells assessed as cell growth inhibition; assay type: functional, cell-based
OVCAR-8 = experiment: Cytotoxicity against human OVCAR-8 cells assessed as cell growth inhibition; assay type: functional, cell-based
ACHN = experiment: Cytotoxicity against human ACHN cells assessed as cell growth inhibition; assay type: functional, cell-based
SK-MEL-5 = experiment: Cytotoxicity against human SK-MEL-5 cells assessed as cell growth inhibition; assay type: functional, cell-based
T47D = experiment: Cytotoxicity against human T47D cells assessed as cell growth inhibition; assay type: functional, cell-based
SN12C = experiment: Cytotoxicity against human SN12C cells assessed as cell growth inhibition; assay type: functional, cell-based
A498 = experiment: Cytotoxicity against human A498 cells assessed as cell growth inhibition; assay type: functional, cell-based
MDA-MB-435 = experiment: Cytotoxicity against human MDA-MB-435 cells assessed as cell growth inhibition; assay type: functional, cell-based
COLO 205 = experiment: Cytotoxicity against human COLO 205 cells assessed as cell growth inhibition; assay type: functional, cell-based
CCRF-CEM = experiment: Cytotoxicity against human CCRF-CEM cells assessed as cell growth inhibition; assay type: functional, cell-based
HCT-116 = experiment: Cytotoxicity against human HCT-116 cells assessed as cell growth inhibition; assay type: functional, cell-based
HL-60(TB) = experiment: Cytotoxicity against human HL-60(TB) cells assessed as cell growth inhibition; assay type: functional, cell-based
[3] = Cytotoxicity against human hTERT-HME1 cells assessed as cell growth inhibition; assay type: toxicity, cell-based
[4] = Cytotoxicity against human F180 cells assessed as cell growth inhibition; assay type: toxicity, cell-based
HT-29 [5] = experiment: Antiproliferative activity against human HT-29 cells assessed as reduction in cell viability; assay type: functional, cell-based

Q: Which “inhibition (INH)” value [1] does the source give for O=C(n1ccc2cc(OS(=O)(=O)c3ccc(F)cc3)ccc21)C12CC3CC(CC(C3)C1)C2 here?
A: 86%

Q: Which IC50 (IGROV-1) does the source give for O=c1[nH]cc(F)c(=O)[nH]1 [FLUOROURACIL] here?
A: 1220 nM

Q: What about the IC50 (RXF 393) of the same compound?
A: 2610 nM

Q: What about the IC50 (SF-268) of the same compound?
A: 1620 nM

Q: What about the IC50 (A549) of the same compound?
A: 180 nM

Q: And the IC50 (U-251)?
A: 920 nM

Q: And the IC50 (K562)?
A: 3580 nM

Q: What about the IC50 (Hs-578T) of the same compound?
A: 9770 nM

Q: What about the IC50 (786-0) of the same compound?
A: 720 nM

Q: What about the IC50 (SW-620) of the same compound?
A: 920 nM

Q: And the IC50 (NCI-H522)?
A: 7270 nM

Q: What about the IC50 (HT-29 [2]) of the same compound?
A: 170 nM

Q: And the IC50 (OVCAR-3)?
A: 10 nM

Q: What about the IC50 (SNB-19) of the same compound?
A: 3810 nM

Q: What about the IC50 (MDA-MB-231) of the same compound?
A: 6600 nM

Q: What about the IC50 (HOP-92) of the same compound?
A: 77900 nM

Q: What about the IC50 (NCI/ADR-RES) of the same compound?
A: 310 nM

Q: And the IC50 (SF-539)?
A: 60 nM

Q: And the IC50 (NCI-H23)?
A: 330 nM

Q: And the IC50 (NCI-H226)?
A: 54700 nM

Q: And the IC50 (HCT-15)?
A: 110 nM

Q: What about the IC50 (TK-10) of the same compound?
A: 1120 nM

Q: And the IC50 (UACC-257)?
A: 3550 nM

Q: What about the IC50 (RPMI-8226) of the same compound?
A: 40 nM

Q: And the IC50 (SNB-75)?
A: 78700 nM

Q: And the IC50 (BT-549)?
A: 10600 nM

Q: What about the IC50 (SK-OV-3) of the same compound?
A: 21800 nM

Q: What about the IC50 (HCC 2998) of the same compound?
A: 50 nM

Q: And the IC50 (KM12)?
A: 210 nM

Q: And the IC50 (MOLT-4)?
A: 350 nM

Q: What about the IC50 (CAKI-1) of the same compound?
A: 70 nM

Q: And the IC50 (HOP-62)?
A: 390 nM

Q: And the IC50 (UACC-62)?
A: 520 nM

Q: What about the IC50 (DU-145) of the same compound?
A: 360 nM

Q: And the IC50 (Malme-3M)?
A: 50 nM

Q: And the IC50 (MCF7)?
A: 70 nM

Q: And the IC50 (OVCAR-4)?
A: 4430 nM

Q: And the IC50 (SK-MEL-2)?
A: 56700 nM

Q: What about the IC50 (OVCAR-5) of the same compound?
A: 10900 nM

Q: What about the IC50 (UO-31) of the same compound?
A: 1420 nM

Q: And the IC50 (M14)?
A: 980 nM

Q: And the IC50 (PC-3)?
A: 2360 nM

Q: What about the IC50 (NCI-H460) of the same compound?
A: 50 nM

Q: What about the IC50 (SK-MEL-28) of the same compound?
A: 1030 nM

Q: And the IC50 (OVCAR-8)?
A: 1740 nM

Q: What about the IC50 (ACHN) of the same compound?
A: 270 nM

Q: What about the IC50 (SK-MEL-5) of the same compound?
A: 460 nM

Q: And the IC50 (T47D)?
A: 8120 nM

Q: And the IC50 (SN12C)?
A: 490 nM

Q: And the IC50 (A498)?
A: 350 nM

Q: What about the IC50 (MDA-MB-435) of the same compound?
A: 70 nM

Q: What about the IC50 (COLO 205) of the same compound?
A: 150 nM

Q: What about the IC50 (CCRF-CEM) of the same compound?
A: 9970 nM

Q: And the IC50 (HCT-116)?
A: 220 nM

Q: What about the IC50 (HL-60(TB)) of the same compound?
A: 2300 nM

Q: With COc1cccc2c1C(=O)c1c(O)c3c(c(O)c1C2=O)C[C@@](O)(C(=O)CO)C[C@@H]3O[C@H]1C[C@H](N)[C@H](O)[C@H](C)O1 [DOXORUBICIN] as the compound, how does the IC50 [3] read?
A: 770 nM

Q: What about the IC50 [4] of the same compound?
A: 140 nM

Q: With O=C(n1ccc2cc(OS(=O)(=O)c3ccccc3)ccc21)C12CC3CC(CC(C3)C1)C2 as the compound, how does the “inhibition (INH)” value [1] read?
A: 88%

Q: With O=C(Nc1ccc(OS(=O)(=O)c2ccc(F)cc2)cc1)C1CCCCC1 as the compound, how does the IC50 (HT-29 [5]) read?
A: 4730 nM

Q: For O=C(Nc1ccc(NS(=O)(=O)c2ccccc2)cc1)C12CC3CC(CC(C3)C1)C2, which “inhibition (INH)” value [1] is on record?
A: 97.88%
